The target of one test is GSK3alpha (Homo sapiens, UniProt P49840). In words: GSK3alpha assay (same as the GSK3beta assay, GSK3alpha 0.25 ng/μl). Type of test: biochemical. The settings on record: −log IC50 (M); given as ranges (>8; 7-8; <7); read-out: pIC50 (GSK3alpha) (converted). An outline of the steps:
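GSK3α at 0.25 ng/μl phosphorylated 5 μM biotinylated phospho-CREB peptide with 1 μM ATP and 33P-ATP for 1 h at room temperature, in 25 mM Tris pH 7.4 with 10 mM MgCl2 and 1 mM DTT. Phosphorylated peptide was captured on streptavidin SPA beads and counted. IC50 was taken from dose-response curves.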

The target of a further test is GSK3β (Homo sapiens, UniProt P49841). In words: GSK3beta assay (SPA, biotinylated phosphorylated CREB peptide, ATP-P33). Type of test: biochemical. The settings on record: −log IC50 (M); given as ranges (>8; 7-8; <7); read-out: pIC50 (GSK3beta) (converted). An outline of the steps: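 Radiometric SPA at room temperature, pH 7.4 Tris/MgCl2/DTT/BSA/glycerol, with 5.7 ng/μl GSK3β, 5 μM biotinylated phospho-CREB peptide, 1 μM ATP plus 33P-ATP for 1 h. Stopped with streptavidin SPA beads, counted after overnight settling; % inhibition versus no-compound control, IC50 from dose-response curve.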
GSK3β, sequence (P49841 whole entry, species assumed): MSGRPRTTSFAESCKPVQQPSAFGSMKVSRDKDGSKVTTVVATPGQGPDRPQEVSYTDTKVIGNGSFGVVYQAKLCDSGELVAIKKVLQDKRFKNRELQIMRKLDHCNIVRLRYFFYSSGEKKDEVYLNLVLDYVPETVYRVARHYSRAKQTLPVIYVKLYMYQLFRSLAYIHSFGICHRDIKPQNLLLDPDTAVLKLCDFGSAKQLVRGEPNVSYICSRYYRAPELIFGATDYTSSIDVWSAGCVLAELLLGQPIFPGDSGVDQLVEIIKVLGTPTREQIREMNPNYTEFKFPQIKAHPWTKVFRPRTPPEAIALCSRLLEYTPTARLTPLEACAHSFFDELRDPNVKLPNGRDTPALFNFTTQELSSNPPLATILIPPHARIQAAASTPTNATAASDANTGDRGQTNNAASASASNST

GSK3alpha, sequence (P49840 whole entry, species assumed): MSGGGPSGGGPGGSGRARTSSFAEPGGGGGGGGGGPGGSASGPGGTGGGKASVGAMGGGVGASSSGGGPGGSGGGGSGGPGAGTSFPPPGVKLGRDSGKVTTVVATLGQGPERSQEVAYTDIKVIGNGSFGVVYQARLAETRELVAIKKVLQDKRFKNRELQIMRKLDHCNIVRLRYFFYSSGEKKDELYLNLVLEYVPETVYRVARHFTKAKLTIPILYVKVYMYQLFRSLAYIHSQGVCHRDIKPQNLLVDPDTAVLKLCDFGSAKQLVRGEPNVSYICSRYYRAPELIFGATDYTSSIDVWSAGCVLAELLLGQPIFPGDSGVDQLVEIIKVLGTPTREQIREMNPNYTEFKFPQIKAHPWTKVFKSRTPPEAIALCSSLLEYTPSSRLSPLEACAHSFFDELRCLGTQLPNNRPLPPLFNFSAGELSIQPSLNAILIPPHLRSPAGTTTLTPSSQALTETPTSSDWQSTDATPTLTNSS

Turning to `CCOc1cc(Nc2ncc3nnn(-c4cccc(CCO)c4)c3n2)ccc1C(=O)O` [Compound 255], the IC50 at GSK3alpha and at GSK3β was less than 1e-08 M in each case.

Regarding `CS(=O)(=O)Nc1cccc(Nc2ncc3nnn(-c4cccc(CCO)c4)c3n2)c1` [Compound 256], the IC50 on GSK3alpha and on GSK3β was less than 1e-08 M in each case.

Regarding `O=C(O)c1ccc(Nc2ncc3nnn(-c4cccc(CCO)c4)c3n2)cc1` [Compound 257], the IC50 at GSK3alpha and at GSK3β was less than 1e-08 M in each case.

As for `N#Cc1cccc(Nc2ncc3nnn(-c4cccc(CCO)c4)c3n2)c1` [Compound 258], the IC50 at GSK3alpha and at GSK3β was less than 1e-08 M in each case.

Consider `NC(=O)c1ccc(Nc2ncc3nnn(-c4cccc(CCO)c4)c3n2)cc1` [Compound 259], for which the IC50 on GSK3alpha and on GSK3β was less than 1e-08 M each time.

`OCCc1ccc(Nc2ncc3nnn(-c4cccc(CCO)c4)c3n2)cc1` [Compound 260]: the IC50 on GSK3alpha and at GSK3β was less than 1e-08 M throughout.

In the case of `OCCc1cccc(-n2nnc3cnc(Nc4ccc(F)cc4)nc32)c1` [Compound 261], the IC50 at GSK3alpha and on GSK3β was less than 1e-08 M throughout.

In the case of `COCCOc1cccc(Nc2ncc3nnn(-c4cccc(CCO)c4)c3n2)c1` [Compound 262], the IC50 at GSK3alpha and at GSK3β was less than 1e-08 M throughout.

In the case of `CS(=O)(=O)Nc1cccc(Nc2ncc3nnn(-c4cccc(CC#N)c4)c3n2)c1` [Compound 264], the IC50 at GSK3alpha and at GSK3β was less than 1e-08 M in each case.

Regarding `N#CCc1cccc(-n2nnc3cnc(Nc4ccc(F)cc4)nc32)c1` [Compound 265], the IC50 on GSK3alpha and at GSK3β was less than 1e-08 M in each case.

Turning to `COCc1cccc(Nc2ncc3nnn(-c4cccc(CC#N)c4)c3n2)c1` [Compound 266], the IC50 at GSK3alpha and on GSK3β was less than 1e-08 M each time.

For `COc1ccc(Nc2ncc3nnn(-c4cccc(CC#N)c4)c3n2)cn1` [Compound 267], the IC50 on GSK3alpha and on GSK3β was less than 1e-08 M in each case.

Take `N#CCc1cccc(-n2nnc3cnc(Nc4ccc(CCO)cc4)nc32)c1` [Compound 268]: the IC50 at GSK3alpha and at GSK3β was less than 1e-08 M in each case.

As for `COC(=O)c1cc(Nc2ncc3nnn(-c4cccc(CC#N)c4)c3n2)ccc1NC(C)=O` [Compound 269], the IC50 on GSK3alpha and at GSK3β was less than 1e-08 M in each case.

Consider `CC(C)(C)OC(=O)NCc1cccc(-n2nnc3cnc(Nc4ccc(F)cc4)nc32)c1` [Compound 270], for which the IC50 at GSK3alpha and on GSK3β was less than 1e-08 M each time.

For the compound `NC(=O)Cc1cccc(-n2nnc3cnc(Nc4cccc(C(=O)NCCO)c4)nc32)c1` [Compound 271], the IC50 on GSK3alpha and at GSK3β was less than 1e-08 M throughout.

As for `N#CCc1cccc(-n2nnc3cnc(Nc4cccc(C#N)c4)nc32)c1` [Compound 272], the IC50 at GSK3alpha and on GSK3β was less than 1e-08 M each time.

With `CS(=O)(=O)Nc1cccc(Nc2ncc3nnn(-c4cccc(CC(N)=O)c4)c3n2)c1` [Compound 273], the IC50 on GSK3alpha and on GSK3β was less than 1e-08 M throughout.

As for `N#CCc1cccc(-n2nnc3cnc(Nc4ccc(C(N)=O)cc4)nc32)c1` [Compound 274], the IC50 on GSK3alpha and on GSK3β was less than 1e-08 M throughout.

Turning to `N#CCc1cccc(-n2nnc3cnc(Nc4cccc(C(=O)NCCO)c4)nc32)c1` [Compound 275], the IC50 at GSK3alpha and on GSK3β was less than 1e-08 M each time.

With `N#CCc1cccc(-n2nnc3cnc(Nc4cccc(CCO)c4)nc32)c1` [Compound 276], the IC50 at GSK3alpha and at GSK3β was less than 1e-08 M throughout.

For `N#CCc1cccc(-n2nnc3cnc(Nc4cccc(CO)c4)nc32)c1` [Compound 277], the IC50 at GSK3alpha and at GSK3β was less than 1e-08 M in each case.

As to `CC(O)c1cccc(Nc2ncc3nnn(-c4cccc(CC#N)c4)c3n2)c1` (centres unmarked) [Compound 278], the IC50 on GSK3alpha and on GSK3β was less than 1e-08 M throughout.

Take `NCc1cccc(-n2nnc3cnc(Nc4ccc(F)cc4)nc32)c1` [Compound 279]: the IC50 on GSK3alpha and at GSK3β was 1e-08 to 1e-07 M throughout.

With `N#Cc1ccc(Nc2ncc3nnn(-c4cccc(CCO)c4)c3n2)cc1` [Compound 285], the IC50 on GSK3alpha and on GSK3β was less than 1e-08 M in each case.

For `COCCOCc1cccc(-n2nnc3cnc(Nc4ccc(C(N)=O)cc4)nc32)c1` [Compound 286], the IC50 on GSK3alpha and at GSK3β was less than 1e-08 M throughout.

`COCCOCc1cccc(-n2nnc3cnc(Nc4ccc(CCO)cc4)nc32)c1` [Compound 289]: the IC50 at GSK3alpha and on GSK3β was less than 1e-08 M throughout.

With `OCCc1ccc(-n2nnc3cnc(Nc4ccc(F)cc4)nc32)cc1` [Compound 291], the figures for the IC50 on GSK3alpha and at GSK3β were less than 1e-08 M and 1e-08 to 1e-07 M, respectively.

`OCCc1ccc(Nc2ncc3nnn(-c4ccc(CCO)cc4)c3n2)cc1` [Compound 293]: the IC50 is less than 1e-08 M at GSK3alpha and greater than 1e-07 M on GSK3β.

With `CC(C)(C)OC(=O)NCc1ccc(Nc2ncc3nnn(-c4cccc(F)c4)c3n2)cc1` [Compound 294], the IC50 at GSK3alpha and on GSK3β was less than 1e-08 M in each case.

Consider `NCc1ccc(Nc2ncc3nnn(-c4cccc(F)c4)c3n2)cc1` [Compound 295], for which the IC50 at GSK3alpha is less than 1e-08 M; on GSK3β, 1e-08 M.

On to `CN(C)CCOc1ccc(Nc2ncc3nnn(-c4cccc(F)c4)c3n2)cc1` [Compound 296], for which the IC50 on GSK3alpha and at GSK3β was 1e-08 to 1e-07 M each time.

For the compound `COCCOc1cccc(-n2nnc3cnc(Nc4ccc(F)cc4)nc32)c1` [Compound 301], the IC50 on GSK3alpha is less than 1e-08 M; at GSK3β it was 1e-08 to 1e-07 M.

As to `COCCOc1cccc(-n2nnc3cnc(Nc4ccc(CNC(=O)OC(C)(C)C)cc4)nc32)c1` [Compound 302], the IC50 on GSK3alpha was less than 1e-08 M; on GSK3β it was 1e-08 to 1e-07 M.

Take `COCCOc1cccc(-n2nnc3cnc(Nc4cccc(CNC(=O)OC(C)(C)C)c4)nc32)c1` [Compound 303]: the figures for the IC50 on GSK3alpha and on GSK3β were less than 1e-08 M and 1e-08 to 1e-07 M, respectively.

With `COCc1cccc(-n2nnc3cnc(Nc4ccc(C(=O)O)c(OC)c4)nc32)c1` [Compound 304], the IC50 on GSK3alpha and at GSK3β was less than 1e-08 M in each case.

Regarding `COCCOc1cccc(-n2nnc3cnc(Nc4ccc(CN)cc4)nc32)c1` [Compound 305], the IC50 was less than 1e-08 M at GSK3alpha and 1e-08 to 1e-07 M at GSK3β.

In the case of `Fc1cccc(-n2nnc3cnc(Nc4ccc(CNCC(F)(F)F)cc4)nc32)c1` [Compound 306], the IC50 on GSK3alpha and at GSK3β was less than 1e-08 M throughout.

With `NC(=O)c1ccc(Nc2ncc3nnn(-c4cccc(F)c4)c3n2)cc1` [Compound 307], the IC50 on GSK3alpha and on GSK3β was less than 1e-08 M each time.

In the case of `CNC(=O)c1ccc(Nc2ncc3nnn(-c4cccc(F)c4)c3n2)cc1` [Compound 308], the IC50 on GSK3alpha and at GSK3β was less than 1e-08 M in each case.

In the case of `CN(C)C(=O)c1ccc(Nc2ncc3nnn(-c4cccc(F)c4)c3n2)cc1` [Compound 309], the IC50 at GSK3alpha and on GSK3β was less than 1e-08 M throughout.

For the compound `NCc1ccc(Nc2ncc3nnn(-c4cccc(CCO)c4)c3n2)cc1` [Compound 310], the IC50 at GSK3alpha and at GSK3β was less than 1e-08 M throughout.

In the case of `N#CCc1cccc(-n2nnc3cnc(Nc4ccc(CNCC(F)(F)F)cc4)nc32)c1` [Compound 311], the IC50 at GSK3alpha and at GSK3β was less than 1e-08 M each time.
